The values below come from patent US9265253B2, “Use of macrocyclic picolinamides as fungicides” (DOW AGROSCIENCES LLC, priority 2013, dated 2016).

The melting point is the temperature of the solid-liquid transition.

The subject of series [1] is Blumeria graminis f. sp. hordei; Synonym: Erysiphe graminis f. sp. hordei. Nature of the series: Barley Powdery Mildew (ERYSGH) disease control. Format: in vivo. The note with it: Blumeria graminis, 24 h, 1 Day Protectant, read-out: Disease Control ERYSGH 1 DP. The protocol: Technical grades of materials were dissolved in acetone, which were then mixed with nine volumes of water containing 110 ppm Triton X-100. The fungicide solutions were applied onto wheat seedlings using an automated booth sprayer to run-off. All sprayed plants were allowed to air dry prior to further handling. All fungicides were evaluated using the aforementioned method for their activity vs. all target diseases. Wheat leaf blotch and brown rust activity were also evaluated using track spray applications, in which case the fungicides were formulated as EC formulations, containing 0.1% Trycol 5941 in the spray solutions. Wheat plants (variety Yuma) were grown from seed in a greenhouse in 50% mineral soil/50% soil-less Metro mix until the first leaf was fully emerged, with 7-10 seedlings per pot. These plants were inoculated with an aqueous spore suspension of Septoria tritici either prior to or after fungicide treatments. After inoculation the plants were kept in 100% relative humidity (one day in a dark dew chamber followed by two to three days in a lighted dew chamber at 20° C.) to permit spores to germinate and infect the leaf. The plants were then transferred to a greenhouse set at 20° C. for disease to develop. When disease symptoms were fully expressed on the 1st leaves of untreated plants, infection levels were assessed on a scale of 0 to 100 percent disease severity. Percent disease control was calculated using the ratio of disease severity on treated plants relative to untreated plants. Barley seedlings (variety Harrington) were propagated in soil-less Metro mix, with each pot having 8 to 12 plants, and used in the test when first leaf was fully emerged. Test plants were inoculated by dusting with infected stock plants 24 hr after fungicide treatments. After inoculation the plants were kept in a greenhouse set at 20° C. for disease to develop. Fungicide formulation, application and disease assessment on the sprayed leaves followed the procedures as described in the Example A.

Series [2] deals with Blumeria graminis f. sp. tritici; Synonym: Erysiphe graminis f. sp. tritici. Nature of the series: Wheat Powdery Mildew (ERYSGT) disease control. The note with it: 100 ppm, 1 Day Protectant. It counts as in vivo. How it is done: Technical grades of materials were dissolved in acetone, which were then mixed with nine volumes of water containing 110 ppm Triton X-100. The fungicide solutions were applied onto wheat seedlings using an automated booth sprayer to run-off. All sprayed plants were allowed to air dry prior to further handling. All fungicides were evaluated using the aforementioned method for their activity vs. all target diseases. Wheat leaf blotch and brown rust activity were also evaluated using track spray applications, in which case the fungicides were formulated as EC formulations, containing 0.1% Trycol 5941 in the spray solutions. Wheat plants (variety Yuma) were grown from seed in a greenhouse in 50% mineral soil/50% soil-less Metro mix until the first leaf was fully emerged, with 7-10 seedlings per pot. These plants were inoculated with an aqueous spore suspension of Septoria tritici either prior to or after fungicide treatments. […] When disease symptoms were fully expressed on the 1st leaves of untreated plants, infection levels were assessed on a scale of 0 to 100 percent disease severity. Percent disease control was calculated using the ratio of disease severity on treated plants relative to untreated plants. […]

On to `COc1ccnc(C(=O)N[C@H]2CCC[C@H](Cc3ccccc3)[C@@H](OCC(C)C)[C@H](C)OC2=O)c1OCOC(=O)C(C)C` [Compound F151], for which the melting point lay within 122 to 124 °C. Moreover, in series [1], the pest or weed control at 100 ppm fell in the range of 80 to 100%. The “Disease Control ERYSGT 1 DP” value in series [2] is “A (80-100)”.

As to `COc1ccnc(C(=O)N[C@H]2CCC[C@H](Cc3ccccc3)[C@@H](OCC(C)C)[C@H](C)OC2=O)c1OCOC(C)=O` [Compound F106], the pest or weed control at 100 ppm in series [1] lay within 80 to 100%. The “Disease Control ERYSGT 1 DP” value in series [2] is reported as “A (80-100)”.
